The subject of data set [1] is Plasmodium falciparum. Nature of the data set: MMV: Inhibition of Plasmodium falciparum 3D7 at 5uM compound concentration. Format: functional.
The test system of data set [2] is Plasmodium falciparum. Description: MMV: Inhibition of Plasmodium falciparum 3D7 (EC50). It counts as functional, organism-based.
The test system of data set [3] is Plasmodium falciparum. Nature of the data set: MMV: Inhibition of Plasmodium falciparum K1 (EC50). Format: functional, organism-based.
A further data set concerns Trypanosoma cruzi. Nature of the data set: MMV: Inhibition of Trypanosoma cruzi (Tulahuen C4 LacZ) (Chagas in vitro). It counts as functional, organism-based.
Data set [4] has as its system Trypanosoma brucei brucei. Description: MMV: Inhibition of Trypanosoma brucei brucei (Squib 427) (HAT in vitro). Format: functional, organism-based.
The test system of data set [5] is Trypanosoma brucei rhodesiense. Description: MMV: Inhibition of Trypanosoma brucei rhodesiense (STIB 900) (HAT in vitro). It counts as functional, organism-based.
Another data set concerns Leishmania infantum. Nature of the data set: MMV: Inhibition of Leishmania infantum (MHOM/MA/BE/67) in vitro. Format: functional, organism-based.
Data set [6] can be described thus: MMV: Cytotoxicity against human fibroblasts (MRC-5) cells. The conditions noted are these: MRC-5 cells (human fibroblasts).

The source of these data is ChEMBL document CHEMBL2028040, “Malaria Box”.

Some results are limits rather than exact numbers.

Turning to `O=C(CCc1ccccc1)c1ccccc1OCC(O)CN1CCCCC1` (configuration not stated), the inhibition at 5 µM in the data set on Plasmodium falciparum [1] was determined as 97%. For the same compound, the values for the EC50 with Plasmodium falciparum [2] and in the data set with Plasmodium falciparum [3] were 0.676 µM and 0.182 µM, respectively. For the same compound, the IC50 with Trypanosoma cruzi is 16.9 µM; in data set [4], 16.1 µM; in data set [5], 4.7 µM; in the data set on Leishmania infantum, 17.3 µM; in data set [6] it was greater than 32 µM.
In the case of `COc1ccc(-n2ccnc2SCC(=O)Nc2cc(C)ccc2C)c(OC)c1`, the inhibition at 5 µM with Plasmodium falciparum [1] came out at 95%. Further, the half-maximal effective concentration (EC50) is 0.17 µM in the data set with Plasmodium falciparum [2] and 0.388 µM in the data set with Plasmodium falciparum [3]. In addition, the IC50 in the data set on Trypanosoma cruzi is 24.4 µM; in data set [4], greater than 32 µM; in data set [5], 21 µM; in the data set with Leishmania infantum, greater than 32 µM; in data set [6] it was greater than 32 µM.
The compound `COc1ccc(N2CCN(C(CNC(=O)C3CCCCC3)c3ccc4c(c3)OCO4)CC2)cc1` (configuration not stated) yielded an inhibition at 5 µM in the data set with Plasmodium falciparum [1] of 97%. The EC50 in the data set with Plasmodium falciparum [2] is 1.11 µM; with Plasmodium falciparum [3], 0.986 µM. The IC50 with Trypanosoma cruzi was 25.9 µM; in data set [4] it was greater than 32 µM; in data set [5] it was 22.5 µM; in the data set on Leishmania infantum it was greater than 32 µM; in data set [6], greater than 32 µM.
`COC(=O)c1ccc(C2C3=C(O)CC(c4ccc(F)cc4)CC3=Nc3ccccc3N2C(=O)c2ccccc2)cc1` (configuration not stated) gave an inhibition at 5 µM in the data set with Plasmodium falciparum [1] of 98%. The EC50 amounted to 0.327 µM with Plasmodium falciparum [2] and 0.724 µM in the data set with Plasmodium falciparum [3]. The IC50 in the data set on Trypanosoma cruzi is greater than 32 µM; in data set [4], 4.18 µM; in data set [5], 1.72 µM; in the data set on Leishmania infantum it was 1.59 µM; in data set [6], greater than 32 µM.
Regarding `Cn1c(=O)c2cc(C(=O)NCCCN3CCCCCC3)sc2c2ccccc21`, 5 µM produced 97% inhibition with Plasmodium falciparum [1]. Besides, the EC50 is 0.669 µM in the data set with Plasmodium falciparum [2] and 0.576 µM in the data set with Plasmodium falciparum [3]. The concentration for half-maximal inhibition (IC50) in the data set on Trypanosoma cruzi was greater than 32 µM; in data set [4] it was greater than 32 µM; in data set [5] it was 17.4 µM; with Leishmania infantum, greater than 32 µM; in data set [6], greater than 32 µM.
Take `Cc1sc2ncnc(Sc3nc4ccccc4[nH]3)c2c1C`: in the data set with Plasmodium falciparum [1], the inhibition at 5 µM worked out at 100%. Also, the 50% effective concentration (EC50) in the data set on Plasmodium falciparum [2] stood at 0.615 µM; with Plasmodium falciparum [3], 0.582 µM. The IC50 (with Trypanosoma cruzi; in data set [4]; in data set [5]; with Leishmania infantum; in data set [6]) was greater than 32 µM each time.
Take `Oc1ccccc1CN1CCN(C(c2ccccc2)c2ccccc2)CC1`: 5 µM produced 97% inhibition with Plasmodium falciparum [1]. In addition, the concentration for a half-maximal effect (EC50) in the data set on Plasmodium falciparum [2] worked out at 0.611 µM; in the data set with Plasmodium falciparum [3], 0.203 µM. Also, the IC50 is 4.1 µM in the data set on Trypanosoma cruzi; 15.6 µM in data set [4]; 12.5 µM in data set [5]; 11.9 µM in the data set with Leishmania infantum; greater than 32 µM in data set [6].
Turning to `c1ccc2c(NCCCCCCNc3c4c(nc5ccccc35)CCCC4)c3c(nc2c1)CCCC3`, at 5 µM the inhibition with Plasmodium falciparum [1] was 100%. In addition, the EC50 was determined as 0.376 µM with Plasmodium falciparum [2] and 1.35 µM in the data set with Plasmodium falciparum [3]. The IC50 in the data set with Trypanosoma cruzi is 1.19 µM; in data set [4] it was 1.02 µM; in data set [5], 0.794 µM; in the data set on Leishmania infantum, 1.01 µM; in data set [6], 4.06 µM.
Take `CCC1(C)CC(CCNCc2ccccc2O)(c2ccc(C)cc2)CCO1` (configuration not stated): in the data set on Plasmodium falciparum [1], the inhibition at 5 µM was 97%. The EC50 turned out to be 0.142 µM in the data set on Plasmodium falciparum [2] and 0.0372 µM in the data set on Plasmodium falciparum [3]. Besides, the IC50 in the data set with Trypanosoma cruzi stood at 15.7 µM; in data set [4], 3.05 µM; in data set [5] it was 1.01 µM; in the data set on Leishmania infantum, 4.32 µM; in data set [6], 16.1 µM.
`OC(CNC1CCCCC1)Cn1c2ccccc2c2ccccc21` (configuration not stated) returned an inhibition at 5 µM in the data set with Plasmodium falciparum [1] of 93%. For the same compound, the EC50 in the data set with Plasmodium falciparum [2] came out at 0.293 µM; in the data set with Plasmodium falciparum [3], 1.17 µM. The IC50 in the data set with Trypanosoma cruzi is greater than 32 µM; in data set [4] it was 4.15 µM; in data set [5], 4.03 µM; with Leishmania infantum it was 16.6 µM; in data set [6] it was greater than 32 µM.
The compound `O=C1c2ccc3c4c(ccc(c24)C(=O)N1CCCCO)C(=O)N(CCCCO)C3=O` came in with an inhibition at 5 µM in the data set with Plasmodium falciparum [1] of 97%. For the same compound, the concentration for a half-maximal effect (EC50) in the data set on Plasmodium falciparum [2] is 0.795 µM; in the data set on Plasmodium falciparum [3], 0.858 µM. In addition, the IC50 was found to be 2.07 µM in the data set with Trypanosoma cruzi; 2.84 µM in data set [4]; 1 µM in data set [5]; 1.01 µM with Leishmania infantum; 13.8 µM in data set [6].
`CCN(Cc1ccccc1)C1CCN(Cc2cc(Br)ccc2O)CC1` returned an inhibition at 5 µM in the data set on Plasmodium falciparum [1] of 97%. The concentration giving a half-maximal response (EC50) with Plasmodium falciparum [2] came out at 0.625 µM; in the data set with Plasmodium falciparum [3], 0.187 µM. The IC50 in the data set with Trypanosoma cruzi is 11.8 µM; in data set [4] it was 10.9 µM; in data set [5] it was 11.4 µM; with Leishmania infantum, 16 µM; in data set [6] it was greater than 32 µM.
In the data set on Plasmodium falciparum [1], `Cc1ccc(C)c(Cn2c(N3CCC(C(=O)NCc4cccs4)CC3)nc3ccccc32)c1` returned an inhibition at 5 µM of 97%. Besides, the figures for the EC50 in the data set with Plasmodium falciparum [2] and with Plasmodium falciparum [3] were 1.33 µM and 1.67 µM, respectively. Also, the IC50 in the data set with Trypanosoma cruzi was 8.64 µM; in data set [4] it was 6.9 µM; in data set [5], 3.86 µM; in the data set with Leishmania infantum, 17.3 µM; in data set [6] it was greater than 32 µM.
In turn, `CC1CCN(Cc2c(O)ccc3cc(-c4nc5ccccc5s4)c(=O)oc23)CC1` registered an inhibition at 5 µM with Plasmodium falciparum [1] of 91%. Also, the EC50 in the data set with Plasmodium falciparum [2] was 1.13 µM; in the data set on Plasmodium falciparum [3], 0.47 µM. Further, the IC50 is 18 µM in the data set with Trypanosoma cruzi; 18.4 µM in data set [4]; less than 0.125 µM in data set [5]; 19 µM in the data set on Leishmania infantum; 23.2 µM in data set [6].
Take `COc1ccccc1CNC(=O)CCn1c(=O)[nH]c2ccsc2c1=O`: in the data set with Plasmodium falciparum [1], the inhibition at 5 µM stood at 67%. Moreover, the EC50 in the data set on Plasmodium falciparum [2] was 0.14 µM; in the data set on Plasmodium falciparum [3] it was 0.15 µM. The half-inhibitory concentration (IC50) (in the data set on Trypanosoma cruzi; in data set [4]; in data set [5]; in the data set with Leishmania infantum; in data set [6]) was greater than 32 µM throughout.
In the case of `O=C(Nc1ccc(N2CCCCC2)c(Cl)c1)c1ccc(Br)o1`, the inhibition at 5 µM in the data set with Plasmodium falciparum [1] is 96%. Moreover, the EC50 is 0.735 µM with Plasmodium falciparum [2] and 1.45 µM with Plasmodium falciparum [3]. The IC50 in the data set on Trypanosoma cruzi was 14.9 µM; in data set [4], 15.1 µM; in data set [5] it was 13.6 µM; in the data set with Leishmania infantum it was greater than 32 µM; in data set [6] it was 26.8 µM.
As to `CCOC(=O)C1CCN(C(=O)CN2C(=O)c3ccccc3C2c2c[nH]c3ccccc23)CC1` (configuration not stated), at 5 µM the inhibition in the data set with Plasmodium falciparum [1] was 98%. Also, the EC50 came out at 1.18 µM with Plasmodium falciparum [2] and 2.67 µM in the data set with Plasmodium falciparum [3]. Further, the IC50 in the data set with Trypanosoma cruzi is 14.7 µM; in data set [4], 16.1 µM; in data set [5] it was 13.8 µM; with Leishmania infantum, greater than 32 µM; in data set [6], greater than 32 µM.
As for `CCN(CC)S(=O)(=O)c1ccc(-c2csc(Nc3ccc(C)c(C)c3)n2)cc1`, the inhibition at 5 µM in the data set on Plasmodium falciparum [1] is 97%. Besides, the figures for the EC50 with Plasmodium falciparum [2] and with Plasmodium falciparum [3] were 0.641 µM and 1.04 µM, respectively. Further, the IC50 in the data set on Trypanosoma cruzi is greater than 32 µM; in data set [4] it was greater than 32 µM; in data set [5], greater than 32 µM; with Leishmania infantum it was 16.2 µM; in data set [6], greater than 32 µM.
As to `CC(C)(C)c1ccc(C2CC3=Nc4ccccc4N(C(=O)c4ccccc4Cl)C(c4ccc(F)cc4)C3=C(O)C2)cc1` (configuration not stated), the inhibition at 5 µM in the data set on Plasmodium falciparum [1] came out at 96%. Further, the values for the EC50 with Plasmodium falciparum [2] and in the data set with Plasmodium falciparum [3] were 0.947 µM and 0.824 µM, respectively. Further, the IC50 was greater than 32 µM in the data set on Trypanosoma cruzi; 4.25 µM in data set [4]; 1.11 µM in data set [5]; 17.3 µM with Leishmania infantum; greater than 32 µM in data set [6].

As a reminder, the inhibition is the percentage by which the read-out fell short of the control. A low value points to a response near the control. Usually EC50 stands for the midpoint of the concentration-response curve. What is called IC50 is the concentration that gives 50% inhibition.
